Assay results published in PubChem BioAssay AID330 (DTP/NCI, 2004).
Values joined by “and” are separate entries in the source; they are usually repeats but may differ in a detail not shown here. Equal entries are not always repeated. Toxic doses and inconclusive results are not listed. How the source made its calls: active means survival T/C of 150% or more; inactive means T/C below 125% in these data.

System: P388 leukemia ip, CD2F1 mice, survival T/C
Experiment: NCI In Vivo Anticancer Drug Screen. Data for tumor model P388 Leukemia (intraperitoneal) in CD2F1 (CDF1) mice
Conditions: endpoint: median survival time, higher = longer survival
Procedure, shortened: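 Mice carrying the transplanted tumor received test compound or vehicle. Survival was recorded in each group, and the value is the treated-group measurement divided by that of the vehicle-treated control group.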

[1] = dose: 50.0 mg/kg/injection, schedule: Q01DX005 (ip), vehicle: saline with Tween-80
[2] = dose: 100.0 mg/kg/injection, schedule: Q01DX005 (ip), vehicle: saline with Tween-80
[3] = dose: 200.0 mg/kg/injection, schedule: Q01DX005 (ip), vehicle: saline with Tween-80
[4] = dose: 50.0 mg/kg/injection, schedule: Q01DX009 (ip), vehicle: Klucel (hydroxypropylcellulose) (HPC)
[5] = dose: 100.0 mg/kg/injection, schedule: Q01DX009 (ip), vehicle: Klucel (hydroxypropylcellulose) (HPC)
[6] = dose: 200.0 mg/kg/injection, schedule: Q01DX009 (ip), vehicle: Klucel (hydroxypropylcellulose) (HPC)
[7] = dose: 50.0 mg/kg/injection, schedule: Q01DX009 (ip), vehicle: saline with Tween-80
[8] = dose: 100.0 mg/kg/injection, schedule: Q01DX009 (ip), vehicle: saline with Tween-80
[9] = dose: 200.0 mg/kg/injection, schedule: Q01DX009 (ip), vehicle: saline with Tween-80
[10] = dose: 60.0 mg/kg/injection, schedule: Q01DX005 (ip), vehicle: saline with Tween-80
[11] = dose: 120.0 mg/kg/injection, schedule: Q01DX005 (ip), vehicle: saline with Tween-80
[12] = dose: 240.0 mg/kg/injection, schedule: Q01DX005 (ip), vehicle: saline with Tween-80

Measured: T/C

CC1=CC(O)(CC(N)=O)C=C(C)C1=O
inactive: dose: 3.13 mg/kg/injection, schedule: Q01DX009 (ip), vehicle: distilled water + Tween-80 100 % of control | dose: 6.25 mg/kg/injection, schedule: Q01DX009 (ip), vehicle: distilled water + Tween-80 100 % of control | dose: 12.5 mg/kg/injection, schedule: Q01DX009 (ip), vehicle: distilled water + Tween-80 99 % of control | dose: 25.0 mg/kg/injection, schedule: Q01DX009 (ip), vehicle: distilled water + Tween-80 100 % of control | dose: 50.0 mg/kg/injection, schedule: Q01DX009 (ip), vehicle: distilled water + Tween-80 100 % of control | dose: 100.0 mg/kg/injection, schedule: Q01DX009 (ip), vehicle: distilled water + Tween-80 108 % of control | dose: 200.0 mg/kg/injection, schedule: Q01DX009 (ip), vehicle: distilled water + Tween-80 108 % of control | dose: 400.0 mg/kg/injection, schedule: Q01DX009 (ip), vehicle: distilled water + Tween-80 108 % of control

O=C1CCCC2C3CCC[N+]4([O-])CCCC(O)(CN12)C34 (stereo unspecified)
inactive: dose: 6.2 mg/kg/injection, schedule: Q01DX007 (ip), vehicle: carboxymethylcellulose (CMC) 100 % of control | dose: 12.5 mg/kg/injection, schedule: Q01DX007 (ip), vehicle: carboxymethylcellulose (CMC) 91 % of control | dose: 25.0 mg/kg/injection, schedule: Q01DX007 (ip), vehicle: carboxymethylcellulose (CMC) 91 % of control

[CH3][Pb]([CH3])([CH3])[Cl]
inactive: dose: 0.75 mg/kg/injection, schedule: Q01DX009 (ip), vehicle: saline 90 % of control and 92 % of control | dose: 1.5 mg/kg/injection, schedule: Q01DX009 (ip), vehicle: saline 90 % of control and 93 % of control and 97 % of control | dose: 3.0 mg/kg/injection, schedule: Q01DX009 (ip), vehicle: saline 94 % of control (2×) and 97 % of control | dose: 6.0 mg/kg/injection, schedule: Q01DX009 (ip), vehicle: saline 95 % of control

COC1=C(N)C(=O)c2nc(-c3nc(C=O)c(C)c(-c4ccc(OC)c(OC)c4O)c3N)ccc2C1=O
inactive: dose: 0.18 mg/kg/injection, schedule: Q01DX009 (ip), vehicle: DMSO 116 % of control | dose: 0.3 mg/kg/injection, schedule: Q01DX009 (ip), vehicle: DMSO 115 % of control | dose: 0.3 mg/kg/injection, schedule: Q01DX009 (ip), vehicle: other 115 % of control | dose: 0.33 mg/kg/injection, schedule: Q01DX009 (ip), vehicle: DMSO 104 % of control | dose: 0.55 mg/kg/injection, schedule: Q01DX009 (ip), vehicle: DMSO 124 % of control | dose: 0.55 mg/kg/injection, schedule: Q01DX009 (ip), vehicle: other 124 % of control | dose: 0.62 mg/kg/injection, schedule: Q01DX009 (ip), vehicle: other 120 % of control | dose: 0.63 mg/kg/injection, schedule: Q01DX009 (ip), vehicle: DMSO 110 % of control | dose: 0.93 mg/kg/injection, schedule: Q01DX009 (ip), vehicle: DMSO 121 % of control | dose: 1.05 mg/kg/injection, schedule: Q01DX009 (ip), vehicle: DMSO 124 % of control | dose: 1.05 mg/kg/injection, schedule: Q01DX009 (ip), vehicle: other 124 % of control | dose: 1.24 mg/kg/injection, schedule: Q01DX009 (ip), vehicle: other 110 % of control | dose: 1.53 mg/kg/injection, schedule: Q01DX009 (ip), vehicle: DMSO 118 % of control | dose: 1.55 mg/kg/injection, schedule: Q01DX009 (ip), vehicle: DMSO 124 % of control | dose: 1.55 mg/kg/injection, schedule: Q01DX009 (ip), vehicle: other 99 % of control and 100 % of control and 124 % of control | dose: 2.05 mg/kg/injection, schedule: Q01DX009 (ip), vehicle: DMSO 110 % of control | dose: 2.05 mg/kg/injection, schedule: Q01DX009 (ip), vehicle: other 110 % of control | dose: 3.03 mg/kg/injection, schedule: Q01DX009 (ip), vehicle: DMSO 84 % of control | dose: 3.1 mg/kg/injection, schedule: Q01DX009 (ip), vehicle: other 121 % of control | dose: 4.96 mg/kg/injection, schedule: Q01DX009 (ip), vehicle: other 92 % of control and 93 % of control | dose: 6.03 mg/kg/injection, schedule: Q01DX009 (ip), vehicle: DMSO 94 % of control | dose: 6.05 mg/kg/injection, schedule: Q01DX009 (ip), vehicle: DMSO 124 % of control | dose: 6.05 mg/kg/injection, schedule: Q01DX009 (ip), vehicle: other 124 % of control | dose: 6.2 mg/kg/injection, schedule: Q01DX009 (ip), vehicle: other 110 % of control | dose: 12.4 mg/kg/injection, schedule: Q01DX009 (ip), vehicle: other 56 % of control

COc1ccc(-n2c(C)nc3ccccc3c2=O)cc1CN(CCCl)CCCl
inactive: dose: 25.0 mg/kg/injection, schedule: Q04DX002 (ip), vehicle: saline with Tween-80 97 % of control | dose: 50.0 mg/kg/injection, schedule: Q04DX002 (ip), vehicle: saline with Tween-80 109 % of control | dose: 100.0 mg/kg/injection, schedule: Q04DX002 (ip), vehicle: saline with Tween-80 100 % of control

O=C1CN(CCCCl)CC(=O)N2Cc3ccccc3CN12
inactive: [1] 106 % of control | [2] 101 % of control | [3] 99 % of control

C1=NC(c2ccccn2)=NNC(c2ccccn2)=C1c1ccccc1
inactive: dose: 12.5 mg/kg/injection, schedule: Q01DX009 (ip), vehicle: Klucel (hydroxypropylcellulose) (HPC) 97 % of control | dose: 25.0 mg/kg/injection, schedule: Q01DX009 (ip), vehicle: Klucel (hydroxypropylcellulose) (HPC) 98 % of control | [4] 93 % of control | [5] 96 % of control | [6] 93 % of control

Cc1[nH]nc2c(Cc3ccco3)n[nH]c(=O)c12
inactive: [4] 101 % of control | [5] 100 % of control | [6] 100 % of control

C#CC1(OC(=O)Nc2cccc(Cl)c2)CCCCC1
inactive: dose: 12.5 mg/kg/injection, schedule: Q01DX009 (ip), vehicle: saline with Tween-80 91 % of control and 97 % of control | dose: 25.0 mg/kg/injection, schedule: Q01DX009 (ip), vehicle: saline with Tween-80 98 % of control and 110 % of control | [7] 102 % of control and 105 % of control and 90 % of control | [8] 106 % of control and 108 % of control | [9] 97 % of control | dose: 400.0 mg/kg/injection, schedule: Q01DX009 (ip), vehicle: saline with Tween-80 94 % of control

CCOc1ccc(NC(=O)CC(C)O)cc1 (stereo unspecified)
inactive: [7] 94 % of control | [8] 93 % of control | [9] 96 % of control

Cc1ccccc1NC(=O)C1C(=O)N(c2ccccc2C)C(=O)/C1=N/O (stereo unspecified)
inactive: [10] 99 % of control | [11] 97 % of control | [12] 94 % of control

CCCc1nc(NC(=O)c2ccccc2)nc(NC(=O)c2ccccc2)n1
inactive: [1] 102 % of control | [2] 106 % of control | [3] 106 % of control

OCC1OC2NC(=S)OC2C1O (stereo unspecified)
inactive: dose: 50.0 mg/kg/injection, schedule: Q01DX009 (ip), vehicle: saline 100 % of control | dose: 100.0 mg/kg/injection, schedule: Q01DX009 (ip), vehicle: saline 100 % of control | dose: 200.0 mg/kg/injection, schedule: Q01DX009 (ip), vehicle: saline 95 % of control

C=CC(=O)OCCCN(CCCC)CCCC
inactive: dose: 25.0 mg/kg/injection, schedule: Q01DX005 (ip), vehicle: Klucel (hydroxypropylcellulose) (HPC) 100 % of control | dose: 50.0 mg/kg/injection, schedule: Q01DX005 (ip), vehicle: Klucel (hydroxypropylcellulose) (HPC) 95 % of control | dose: 100.0 mg/kg/injection, schedule: Q01DX005 (ip), vehicle: Klucel (hydroxypropylcellulose) (HPC) 105 % of control | dose: 200.0 mg/kg/injection, schedule: Q01DX005 (ip), vehicle: Klucel (hydroxypropylcellulose) (HPC) 105 % of control

COc1ccc(SCC(=O)c2ccc([N+](=O)[O-])o2)cc1
inactive: dose: 50.0 mg/kg/injection, schedule: Q01DX009 (ip), vehicle: suspension in saline 114 % of control | dose: 100.0 mg/kg/injection, schedule: Q01DX009 (ip), vehicle: suspension in saline 104 % of control

CCC(C)B1N(c2ccccc2)N=NN1C(C)(C)C (stereo unspecified)
inactive: [10] 97 % of control | [11] 97 % of control | [12] 105 % of control
